We go through 20 compounds from BindingDB's records for patent US20250313563 (The Broad Institute, 2025).

Where “and” joins values, the source holds several entries; their conditions need not be identical. Equal values may be shown once.

The target of test [1] is Glycogen synthase kinase-3 beta (Homo sapiens, UniProt P49841). Kind of test: TR-FRET Assay. The procedure, abridged: (§1)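 TR-FRET readout: streptavidin-d2 (40 nM in added detection mix) plus Tb-anti-pSer641 Ab (2 nM in mix). Steps were 30 min compound preincubation, kinase reaction, then EDTA stop.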
Chain of Glycogen synthase kinase-3 beta (P49841 whole entry): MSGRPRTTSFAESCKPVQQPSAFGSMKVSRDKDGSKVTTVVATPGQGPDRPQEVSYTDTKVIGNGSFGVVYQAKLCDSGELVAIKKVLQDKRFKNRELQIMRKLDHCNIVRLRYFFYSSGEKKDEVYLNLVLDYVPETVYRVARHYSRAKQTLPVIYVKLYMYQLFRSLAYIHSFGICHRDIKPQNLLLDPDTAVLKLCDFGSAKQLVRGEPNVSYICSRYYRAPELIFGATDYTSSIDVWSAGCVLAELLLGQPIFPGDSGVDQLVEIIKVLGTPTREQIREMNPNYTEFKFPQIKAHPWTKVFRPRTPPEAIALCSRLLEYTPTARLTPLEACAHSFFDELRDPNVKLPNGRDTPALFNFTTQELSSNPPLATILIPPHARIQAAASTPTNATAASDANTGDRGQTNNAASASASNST
A general note: In TR-FRET formats the signal depends on donor and acceptor labels being close together.

Test [2] has as its target Glycogen synthase kinase-3 alpha (Homo sapiens, UniProt P49840). Kind of test: TR-FRET Assay. The procedure, abridged: as §1

Chain of Glycogen synthase kinase-3 alpha (P49840 whole entry): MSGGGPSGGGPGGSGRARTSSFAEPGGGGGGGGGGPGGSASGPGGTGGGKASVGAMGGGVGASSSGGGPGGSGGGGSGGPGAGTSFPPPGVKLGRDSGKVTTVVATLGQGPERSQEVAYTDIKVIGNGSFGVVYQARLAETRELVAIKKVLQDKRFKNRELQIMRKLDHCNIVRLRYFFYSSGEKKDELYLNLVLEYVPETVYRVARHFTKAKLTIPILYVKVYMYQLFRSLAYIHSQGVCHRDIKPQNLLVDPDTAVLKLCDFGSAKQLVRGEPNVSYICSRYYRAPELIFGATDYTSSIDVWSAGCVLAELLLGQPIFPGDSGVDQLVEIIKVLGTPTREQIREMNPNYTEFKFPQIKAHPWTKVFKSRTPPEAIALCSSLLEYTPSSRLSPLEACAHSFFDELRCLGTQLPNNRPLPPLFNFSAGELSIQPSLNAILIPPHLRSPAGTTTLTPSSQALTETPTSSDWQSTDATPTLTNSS

One may read the IC50 as the concentration needed to halve the response being measured. The low end stands for greater potency in that assay, the high end for weaker potency in that assay. With `CC[C@]1(c2cccc(N3CCCC[C@H]3C)c2)C2=CN=NC2NC2=C1C(=O)CC(C)(C)C2` (stereo not given in full) [US20250313563, Compound 917209], the values for the IC50 in test [1] and in test [2] were 100 to 1000 nM and below 100 nM, respectively.
In the same order, the values of `CCC1(c2cccc(-c3cc(C)nc(OC(F)F)c3)c2)C2=CN=NC2NC2=C1C(=O)CC(C)(C)C2` (stereo not given) [US20250313563, Compound 945463] are 1000 to 5000 nM and 100 to 1000 nM.
Consider `Cc1ncc(S(=O)(=O)N2CCC3(CC2)C2=C(N=NC2)NC2=C3C(=O)CC(C)(C)C2)o1` [US20250313563, Compound 947611], for which the 50% inhibitory concentration (IC50) was < 100 nM and 100 to 1000 nM in test [1]; < 100 nM and 100 to 1000 nM in test [2].
In the case of `CC1(C)CC(=O)C2=C(C1)NC1=C(CN=N1)[C@@]21CCC[C@@H](C#N)C1` [US20250313563, Compound 945906], the IC50 in test [1] and in test [2] was 100 to 1000 nM throughout.
With `CC[C@@]1(c2cccc(-c3ccncc3F)c2)C2=CN=NC2NC2=C1C(=O)NC(C)(C)C2` (stereo not given in full) [US20250313563, Compound 947869], the 50% inhibitory concentration (IC50) in test [1] is < 100 nM and 1000 to 5000 nM; in test [2] it was below 100 nM.
On to `CCC(C)C(=O)N1CC2(C1)CC1(CO2)C2=C(N=NC2)NC2=C1C(=O)CC(C)(C)C2` (stereo not given) [US20250313563, Compound 947270], for which the figures for the IC50 in test [1] and in test [2] were 100 to 1000 nM and below 100 nM, respectively.
Regarding `CC1(C)CC(=O)C2=C(C1)NC1=C(CN=N1)[C@]21CCO[C@@H](C(F)(F)F)C1` [US20250313563, Compound 884021], the IC50 in test [1] and in test [2] was 100 to 1000 nM each time.
For `CC1(C)CC(=O)C2=C(C1)NC1=C(CN=N1)[C@]21CCN(S(=O)(=O)C2CCCC2)C1` [US20250313563, Compound 943482], the IC50 in test [1] was < 100 nM and 100 to 1000 nM; in test [2] it was < 100 nM and 100 to 1000 nM.
Turning to `CC[C@]1(c2cccc(-c3ccnc(C)c3C)c2)C2=C(CC(C)(C)CC2=O)NC2N=NC(C(F)(F)F)=C21` (stereo not given in full) [US20250313563, Compound 947328], the IC50 in test [1] and in test [2] was 100 to 1000 nM throughout.
Consider `CCC1(c2cccc(C(C)C)c2)C2=CN=NC2NC2=C1C(=O)CC(C)(C)C2` (stereo not given) [US20250313563, Compound 801322], for which the IC50 in test [1] was 100 to 1000 nM; in test [2] it was below 100 nM.
In the same order, the values of `CCc1cnccc1-c1cccc([C@@]2(CC)C3=CN=NC3NC3=C2C(=O)NC(C)(C)C3)c1` (stereo not given in full) [US20250313563, Compound 948639] are 100 to 1000 nM and below 100 nM.
The corresponding values for `CC1(C)CC(=O)C2=C(C1)NC1=C(CN=N1)C21COC2(CN(C(=O)C3(F)CCCC3)C2)C1` (stereo not given) [US20250313563, Compound 947277] are below 100 nM and below 100 nM.
In the same order, the values of `CC[C@]1(c2cccc(C(F)(F)F)c2)C2=CN=NC2NC2=C1C(=O)N[C@H](C)C2` (stereo not given in full) [US20250313563, Compound 912096] are 100 to 1000 nM and below 100 nM.
With `CC1(C)CC(=O)C2=C(C1)NC1=C(CN=N1)C21COC2(CN(C(=O)CC3CCCCC3)C2)C1` (stereo not given) [US20250313563, Compound 947305], the concentration for half-maximal inhibition (IC50) in test [1] and in test [2] was below 100 nM each time.
`CC1(C)CC(=O)C2=C(C1)NC1=C(CN=N1)C21CN(CC(F)(F)F)C1` [US20250313563, Compound 912074]: the results for the half-maximal inhibitory concentration (IC50) in test [1] and in test [2] were 100 to 1000 nM and below 100 nM, respectively.
Consider `CCC1(c2cccc(-c3ccncc3C)c2)C2=CN=NC2NC2=C1C(=O)NC(C)(C)C2` (stereo not given) [US20250313563, Compound 945461], for which the IC50 in test [1] and in test [2] was below 100 nM throughout.
For the compound `CC[C@@]1(c2cccc(-c3cnnc(C)c3)c2)C2=CN=NC2NC2=C1C(=O)CC(C)(C)C2` (stereo not given in full) [US20250313563, Compound 943995], the IC50 in test [1] is above 5000 nM; in test [2], 100 to 1000 nM.
Turning to `CC[C@]1(c2cccc(-c3cc(C)nn3C)c2)C2=C(CC(C)(C)CC2=O)NC2N=NC(C(F)(F)F)=C21` (stereo not given in full) [US20250313563, Compound 947383], the half-maximal inhibitory concentration (IC50) in test [1] is above 5000 nM; in test [2] it was 1000 to 5000 nM.
As to `CC1(C)CC(=O)C2=C(C1)NC1=C(CN=N1)[C@]21COC2(CN(C(=O)[C@H]3CC3(F)F)C2)C1` [US20250313563, Compound 948215], the half-inhibitory concentration (IC50) was < 100 nM and 100 to 1000 nM in test [1]; < 100 nM and 100 to 1000 nM in test [2].
With `CC[C@@]1(c2cccc(Br)c2)C2=CN=NC2NC2=C1C(=O)C[C@H](C)C2` (stereo not given in full) [US20250313563, Compound 810487], the concentration for half-maximal inhibition (IC50) is 100 to 1000 nM in test [1] and below 100 nM in test [2].
